# Assay results: patent US4273765A, “Amino sugar derivatives containing trehalose” (Hoffmann-La Roche Inc., priority 1978, dated 1981)
# Legend:
# Shigella flexneri = test: Antimicrobial spectrum, agar-dilution method; format: cell-based
# [1] = target: T1, porcine pancreatic α-amylase (Sus scrofa, UniProt P00690); test: Porcine pancreatic α-amylase inhibitory activity (Bernfeld assay); format: biochemical; settings: IU = amount giving 50% inhibition of 2 units porcine pancreatic α-amylase, pH 6.9, 37° C.
# T1 sequence (P00690 16-511): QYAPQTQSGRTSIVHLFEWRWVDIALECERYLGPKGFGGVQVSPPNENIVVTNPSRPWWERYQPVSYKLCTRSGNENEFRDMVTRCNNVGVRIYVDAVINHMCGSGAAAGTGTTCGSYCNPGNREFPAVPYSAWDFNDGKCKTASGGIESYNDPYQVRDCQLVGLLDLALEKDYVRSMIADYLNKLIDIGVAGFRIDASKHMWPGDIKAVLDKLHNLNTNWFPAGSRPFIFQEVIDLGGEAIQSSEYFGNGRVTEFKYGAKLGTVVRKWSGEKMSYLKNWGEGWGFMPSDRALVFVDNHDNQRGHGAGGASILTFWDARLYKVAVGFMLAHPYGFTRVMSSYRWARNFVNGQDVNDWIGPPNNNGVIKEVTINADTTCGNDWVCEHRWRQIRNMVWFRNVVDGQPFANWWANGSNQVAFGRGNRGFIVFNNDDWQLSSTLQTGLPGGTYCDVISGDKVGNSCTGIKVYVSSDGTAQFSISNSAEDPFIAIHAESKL
# Description: 2 units* of porcine pancreatic α-amylase in 0.1 ml of 6.4 mM ammonium sulfate solution are added to 0.6 ml of 20 mM phosphate buffer (pH 6.9) containing 10 mM sodium chloride and different amounts of Trestatin. The mixture, after equilibration at 37° C. for 5 min. followed by the addition of 0.5 ml of 4% soluble starch solution, is incubated for 5 min. at 37° C. The reaction is terminated by the addition of 2 ml of dinitrosalicylic acid reagent prepared according to the method of P. Bernfeld. The mixture is heated on a boiling water bath for 5 min. and then diluted with 10 ml of water. Absorbance (A1) of the resulting colored solution is measured at 540 nm, and the inhibition of α-amylase activity can be calculated from the following equation: [formula] A0; absorbance without enzyme A2; absorbance without Trestatin
# *1 unit of the α-amylase is the amount of enzyme which catalyzes under the above conditions without Trestatin the formation of reducing sugars equivalent to 1 μmol of maltose.
# Each of said inhibitory activities was determined by the method mentioned above.
# E. coli NIHJ SMf = test: Antimicrobial spectrum, agar-dilution method; format: cell-based
# Titration (in water) = format: physicochemical
# [2] = test system: Proteus vulgaris OX19 ATCC6898; test: Antimicrobial spectrum, agar-dilution method; format: cell-based
# [3] = test system: Klebsiella pneumoniae PCI602; test: Antimicrobial spectrum, agar-dilution method; format: cell-based
# [4] = test system: Staphylococcus aureus Smith; test: Antimicrobial spectrum, agar-dilution method; format: cell-based
# Salmonella paratyphi B = settings: agar-dilution
# [5] = test system: Staphylococcus aureus MS9261; test: Antimicrobial spectrum, agar-dilution method; format: cell-based
# [6] = test system: Mycobacterium smegmatis ATCC607; test: Antimicrobial spectrum, agar-dilution method; format: cell-based
# Candida albicans Yu1200 = test: Antimicrobial spectrum, agar-dilution method; format: cell-based
# [7] = test system: Pseudomonas aeruginosa P2; test: Antimicrobial spectrum, agar-dilution method; format: cell-based
# rats = test: Acute toxicity, oral, rats; settings: 500 mg/kg administered to rats orally (65-700 times the effective dosage)
# E. coli NIHJ = test: Antimicrobial spectrum, agar-dilution method; format: cell-based
# [8] = test system: Serratia marcescens IFO12648; test: Antimicrobial spectrum, agar-dilution method; format: cell-based
# [9] = test system: Pseudomonas aeruginosa IFO12689; test: Antimicrobial spectrum, agar-dilution method; format: cell-based
# E. coli CF17 = test: Antimicrobial spectrum, agar-dilution method; format: cell-based
# [10] = test system: Bordetella bronchiseptica Aichi 202; test: Antimicrobial spectrum, agar-dilution method; format: cell-based; settings: Bordetella bronchiseptica Aichi 202, agar-dilution
# E. coli CF41 = test: Antimicrobial spectrum, agar-dilution method; format: cell-based
# Proteus rettgeri = test: Antimicrobial spectrum, agar-dilution method; format: cell-based
# Citrobacter = test: Antimicrobial spectrum, agar-dilution method; format: cell-based
# [11] = test system: Staphylococcus aureus FDA209P; test: Antimicrobial spectrum, agar-dilution method; format: cell-based
# [12] = test system: hyperglycemia (hyperinsulinemia) following an oral load of native starch; test: Hyperglycemia (hyperinsulinemia) following an oral load of native starch; format: in vivo; settings: 20 min. after wheat starch
# Description: (§4) [Plasma Glucose and insulin 20 min. after carbohydrate ± Trestatin (1.
# g wheat starch/kg or 3.2 g sucrose/kg)]
# Sarcina lutea ATCC 9341 = test: Antimicrobial spectrum, agar-dilution method; format: cell-based; settings: Sarcina lutea ATCC 9341, agar-dilution
# [13] = test system: Salmonella typhimurium IFO12529; test: Antimicrobial spectrum, agar-dilution method; format: cell-based
# Solubility in solvents = format: physicochemical
# Excerpt: (h) Solubility in solvents:
# [14] = test system: Pseudomonas aeruginosa A3; test: Antimicrobial spectrum, agar-dilution method; format: cell-based
# E. coli K-12 ML1630 = test: Antimicrobial spectrum, agar-dilution method; format: cell-based; settings: E. coli K-12 ML1630, agar-dilution
# [15] = test system: hyperglycemia following an oral load of sucrose; test: Hyperglycemia following an oral load of sucrose; format: in vivo; settings: dose/kg 30.0 mg; 20 min. after 3.2 g sucrose/kg
# Description: as §4
# g wheat starch/kg or 3.2 g sucrose/kg)]
# [16] = test system: hyperglycemia induced by cooked rice starch; test: Inhibition of hyperglycemia induced by cooked rice starch, mice; format: in vivo; settings: p.o., dose causing after 20 minutes a 20 percent decrease of hyperglycemia, 2 g/kg cooked rice starch
# Description: (§1) **ED20 is defined as the dose causing after 20 minutes a 20 percent
# (§2) decrease of hyperglycemia induced by oral administration of 2 g/kg body
# (§3) weight cooked rice starch.
# [17] = test system: Staphylococcus aureus MS3937; test: Antimicrobial spectrum, agar-dilution method; format: cell-based
# [18] = test system: Bacillus subtilis PCI 219; test: Antimicrobial spectrum, agar-dilution method; format: cell-based; settings: Bacillus subtilis PCI 219, agar-dilution
# E. coli NIHJ STf = test: Antimicrobial spectrum, agar-dilution method; format: cell-based
# [19] = test system: hyperglycemia induced by cooked rice starch; test: Inhibition of hyperglycemia induced by cooked rice starch, rats; format: in vivo; settings: p.o., dose causing after 20 minutes a 20 percent decrease of hyperglycemia, 2 g/kg cooked rice starch
# Description: as §1, §2, §3
compound,measurement,setting,value
C[C@H]1O[C@H](O[C@H]2[C@H](O)[C@@H](O)[C@@H](O[C@H]3[C@H](O)[C@@H](O)[C@@H](O[C@H]4[C@H](O)[C@@H](O)[C@@H](O[C@H]5O[C@H](CO)[C@@H](O)[C@H](O)[C@H]5O)O[C@@H]4CO)O[C@@H]3CO)O[C@@H]2CO)[C@H](O)[C@@H](O)[C@@H]1N[C@H]1C=C(CO)[C@@H](O[C@H]2O[C@H](CO)[C@@H](O[C@H]3O[C@H](C)[C@@H](NC4C=C(CO)[C@@H](O[C@H]5O[C@H](CO)[C@@H](O[C@H]6O[C@H](C)[C@@H](NC7C=C(CO)[C@@H](O)[C@H](O)[C@H]7O)[C@H](O)[C@H]6O)[C@H](O)[C@H]5O)[C@H](O)[C@H]4O)[C@H](O)[C@H]3O)[C@H](O)[C@H]2O)[C@H](O)[C@H]1O (stereo partly drawn) [Trestatin C],Antimicrobial spectrum,Shigella flexneri,> 100 µg/mL
same,Inhibitory activities,[1],4.9 × 10^7 IU/g
same,Antimicrobial spectrum,E. coli NIHJ SMf,> 100 µg/mL
same,pKa',Titration (in water),5.0
same,Antimicrobial spectrum,[2],> 100 µg/mL
same,Antimicrobial spectrum,[3],> 100 µg/mL
same,Antimicrobial spectrum,[4],> 100 µg/mL
same,Antimicrobial spectrum,Salmonella paratyphi B,> 100 µg/mL
same,Antimicrobial spectrum,[5],> 100 µg/mL
same,Antimicrobial spectrum,[6],> 100 µg/mL
same,Antimicrobial spectrum,Candida albicans Yu1200,> 100 µg/mL
same,Antimicrobial spectrum,[7],> 100 µg/mL
same,Acute toxicity,rats,not observed
same,Antimicrobial spectrum,E. coli NIHJ,> 100 µg/mL
same,Antimicrobial spectrum,[8],> 100 µg/mL
same,Antimicrobial spectrum,[9],> 100 µg/mL
same,Antimicrobial spectrum,E. coli CF17,> 100 µg/mL
same,Antimicrobial spectrum,[10],> 100 µg/mL
same,Antimicrobial spectrum,E. coli CF41,> 100 µg/mL
same,Antimicrobial spectrum,Proteus rettgeri,> 100 µg/mL
same,Antimicrobial spectrum,Citrobacter,> 100 µg/mL
same,Antimicrobial spectrum,[11],> 100 µg/mL
same,"Plasma glucose, starch - load",[12]; dose/kg 0.3 mg,71% of carbohydrate primed controls
same,"Plasma insulin, starch - load",[12]; dose/kg 0.3 mg,51% of carbohydrate primed controls
same,"Plasma glucose, starch - load",[12]; dose/kg 1.0 mg,60% of carbohydrate primed controls
same,"Plasma insulin, starch - load",[12]; dose/kg 1.0 mg,51% of carbohydrate primed controls
same,"Plasma glucose, starch - load",[12]; dose/kg 3.0 mg,58% of carbohydrate primed controls
same,"Plasma insulin, starch - load",[12]; dose/kg 3.0 mg,63% of carbohydrate primed controls
same,Antimicrobial spectrum,Sarcina lutea ATCC 9341,> 100 µg/mL
same,Antimicrobial spectrum,[13],> 100 µg/mL
same,Solubility in acetone,Solubility in solvents,slightly soluble
same,Solubility in chloroform,Solubility in solvents,insoluble
same,Solubility in dimethylsulfoxide,Solubility in solvents,soluble
same,Solubility in ethanol,Solubility in solvents,slightly soluble
same,Solubility in ethyl acetate,Solubility in solvents,insoluble
same,Solubility in water,Solubility in solvents,easily soluble
same,Antimicrobial spectrum,[14],> 100 µg/mL
same,Antimicrobial spectrum,E. coli K-12 ML1630,> 100 µg/mL
same,"Plasma glucose, sucrose - load",[15],85% of carbohydrate primed controls
same,"ED20, inhibition of hyperglycemia induced by cooked rice starch",[16],0.7 mg/kg
same,Antimicrobial spectrum,[17],> 100 µg/mL
same,Antimicrobial spectrum,[18],> 100 µg/mL
same,Antimicrobial spectrum,E. coli NIHJ STf,> 100 µg/mL
same,"ED20, inhibition of hyperglycemia induced by cooked rice starch",[19],3.0 mg/kg
Trestatin A dihydrochloride [Trestatin A . HCl],Inhibitory activities,[1],6.3 × 10^7 IU/g
C[C@H]1O[C@H](O[C@@H]2[C@H](O)[C@@H](O)[C@@H](O[C@@H]3[C@H](O)[C@@H](O)[C@@H](O[C@@H]4[C@H](O)[C@H](O)[C@@H](O[C@H]5O[C@H](CO)[C@H](O)[C@H](O)[C@H]5O)O[C@@H]4CO)O[C@@H]3CO)O[C@H]2CO)[C@@H](O)[C@@H](O)[C@@H]1N[C@@H]1C=C(CO)[C@@H](O)[C@@H](O)[C@@H]1O (stereo in doubt) [Trestatin B],Antimicrobial spectrum,Shigella flexneri,> 100 µg/mL
same,Inhibitory activities,[1],1.5 × 10^6 IU/g
same,Antimicrobial spectrum,E. coli NIHJ SMf,> 100 µg/mL
same,pKa',Titration (in water),5.0
same,Antimicrobial spectrum,[2],> 100 µg/mL
same,Antimicrobial spectrum,[3],> 100 µg/mL
same,Antimicrobial spectrum,[4],> 100 µg/mL
same,Antimicrobial spectrum,Salmonella paratyphi B,> 100 µg/mL
same,Antimicrobial spectrum,[5],> 100 µg/mL
same,Antimicrobial spectrum,[6],> 100 µg/mL
same,Antimicrobial spectrum,Candida albicans Yu1200,> 100 µg/mL
same,Antimicrobial spectrum,[7],> 100 µg/mL
same,Acute toxicity,rats,not observed
same,Antimicrobial spectrum,E. coli NIHJ,> 100 µg/mL
same,Antimicrobial spectrum,[8],> 100 µg/mL
same,Antimicrobial spectrum,[9],> 100 µg/mL
same,Antimicrobial spectrum,E. coli CF17,> 100 µg/mL
same,Antimicrobial spectrum,[10],> 100 µg/mL
same,Antimicrobial spectrum,E. coli CF41,> 100 µg/mL
same,Antimicrobial spectrum,Proteus rettgeri,> 100 µg/mL
same,Antimicrobial spectrum,Citrobacter,> 100 µg/mL
same,Antimicrobial spectrum,[11],> 100 µg/mL
same,Antimicrobial spectrum,Sarcina lutea ATCC 9341,> 100 µg/mL
same,Antimicrobial spectrum,[13],> 100 µg/mL
same,Solubility in acetone,Solubility in solvents,slightly soluble
same,Solubility in chloroform,Solubility in solvents,insoluble
same,Solubility in dimethylsulfoxide,Solubility in solvents,soluble
same,Solubility in ethanol,Solubility in solvents,slightly soluble
same,Solubility in ethyl acetate,Solubility in solvents,insoluble
same,Solubility in water,Solubility in solvents,easily soluble
same,Antimicrobial spectrum,[14],> 100 µg/mL
same,Antimicrobial spectrum,E. coli K-12 ML1630,> 100 µg/mL
same,"ED20, inhibition of hyperglycemia induced by cooked rice starch",[16],3.2 mg/kg
same,Antimicrobial spectrum,[17],> 100 µg/mL
same,Antimicrobial spectrum,[18],> 100 µg/mL
same,Antimicrobial spectrum,E. coli NIHJ STf,> 100 µg/mL
same,"ED20, inhibition of hyperglycemia induced by cooked rice starch",[19],7.7 mg/kg
Trestatin C trihydrochloride [Trestatin C . HCl],Inhibitory activities,[1],4.5 × 10^7 IU/g
Trestatin B monohydrochloride [Trestatin B . HCl],Inhibitory activities,[1],1.3 × 10^6 IU/g
